Values joined by “and” are separate entries in the source; they are usually repeats but may differ in a detail not shown here. Equal values may be shown once.
Columns and labels:
HDQ-P1 [1] = assay: normalised viability (% of control), CellTiter-Blue; higher = more viable cells (about 100 = DMSO control); details: 300 nM; incubation time: 72 h
Procedure: (§1)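 DSRT, CellTiter-Blue viability, 72 h incubation. Signal is normalised to DMSO and benzethonium chloride controls. Value is the normalised response at dose 6.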

MDA-MB-453 [2] = assay: as above; details: 300 nM; incubation time: 72 h
Procedure: as §1

DU-4475 = assay: normalised viability (% of control), CellTiter-Blue; higher = more viable cells (about 100 = DMSO control); details: incubation time: 72 h
Outline: (§2)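 Breast cancer cell lines were treated for 72 h in 384-well format and measured by CellTiter-Blue fluorescence at 560/590 nm. Results were normalised per plate to vehicle (100) and a positive kill control (0). The entry is normalised viability at a single listed concentration of the series.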

Hs578T [3] = assay: as above; details: incubation time: 72 h
Outline: as §2

HCC1599 = assay: as above; details: incubation time: 72 h
Outline: as §2

HCC1143 = assay: as above; details: incubation time: 72 h
Outline: as §2

CAL-148 = assay: as above; details: incubation time: 72 h
Outline: as §2

MDA-MB-468 = assay: as above; details: incubation time: 72 h
Outline: as §2

CAL-51 = assay: as above; details: incubation time: 72 h
Outline: as §2

MDA-MB-231 = assay: as above; details: incubation time: 72 h
Outline: as §2

HDQ-P1 [4] = assay: as above; details: incubation time: 72 h
Outline: as §2

CAL-120 = assay: as above; details: incubation time: 72 h
Outline: as §2

MDA-MB-436 [5] = assay: as above; details: incubation time: 72 h
Outline: as §2

BT-549 = assay: as above; details: incubation time: 72 h
Outline: as §2

MFM-223 = assay: as above; details: incubation time: 72 h
Outline: as §2

MDA-MB-453 [6] = assay: as above; details: incubation time: 72 h
Outline: as §2

HCC1937 [7] = assay: as above; details: incubation time: 72 h
Outline: as §2

SK-BR-3 = assay: as above; details: incubation time: 72 h
Outline: as §2

CAL-85-1 = assay: as above; details: incubation time: 72 h
Outline: as §2

BT-474 = assay: as above; details: incubation time: 72 h
Outline: as §2

Hs578T [8] = assay: drug sensitivity score (DSS), CellTiter-Blue viability (DSS (AUC-based score)); higher = stronger viability inhibition; extreme values may be limits of the assay; details: incubation time: 72 h
Outline: (§3)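 Drug sensitivity scores correspond to the area under the fitted dose-response curve. Breast cancer cell lines were incubated 72 h with compound at 5 or 9 concentrations in 384-well plates. Viability, read as CellTiter-Blue fluorescence at 560/590 nm, was normalised per plate to 0.1 % DMSO and a positive kill control.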

HCC1937 [9] = assay: as above; details: incubation time: 72 h
Outline: as §3

MDA-MB-436 [10] = assay: as above; details: incubation time: 72 h
Outline: as §3

Nc1ncn([C@H]2C[C@H](O)[C@@H](CO)O2)c(=O)n1 [Decitabine]
Details | drug sensitivity score | normalised viability
HCC1937 [9] | 3.95 and 4.59 | –
HDQ-P1 [1] | – | 65.3% and 81.8%
Hs578T [8] | 0 | –
MDA-MB-453 [2] | – | 95.2% and 101%

Details | normalised viability
BT-474, 10 nM | 109% and 104%
BT-474, 1000 nM | 89.4% and 86.7%
BT-474, 10000 nM | 95.1% and 79.7%
BT-549, 10 nM | 94.6% and 101%
BT-549, 1000 nM | 81.7% and 89.3%
BT-549, 10000 nM | 57.7% and 65.1%
CAL-51, 3 nM | 116% and 108%
CAL-51, 30 nM | 117% and 101%
CAL-51, 100 nM | 101% and 96.8%
CAL-85-1, 3 nM | 91.9% and 103%
CAL-85-1, 30 nM | 83.4% and 91.2%
CAL-85-1, 100 nM | 93.6% and 93.9%
CAL-120, 10 nM | 88.1% and 89.4%
CAL-120, 1000 nM | 85.4% and 89%
CAL-120, 10000 nM | 58.3% and 62.3%
CAL-148, 3 nM | 92.8% and 76.2%
CAL-148, 30 nM | 91.4% and 85.8%
CAL-148, 100 nM | 86.2% and 96.3%
DU-4475, 3 nM | 110% and 98.7%
DU-4475, 30 nM | 81.5% and 97.7%
DU-4475, 100 nM | 86.9% and 96.8%
HCC1143, 10 nM | 82.7% and 80.8%
HCC1143, 1000 nM | 68.5% and 78.8%
HCC1143, 10000 nM | 56% and 59.8%
HCC1599, 10 nM | 112% and 107%
HCC1599, 10000 nM | 82% and 106%
HCC1937 [7], 10 nM | 120% and 99%
HCC1937 [7], 1000 nM | 77.2% and 76.6%
HCC1937 [7], 10000 nM | 69.2% and 62.8%
HDQ-P1 [4], 30 nM | 93% and 96.6%
HDQ-P1 [4], 100 nM | 96.1% and 92%
Hs578T [3], 10 nM | 103% and 112%
Hs578T [3], 1000 nM | 92.5% and 114%
Hs578T [3], 10000 nM | 83.6% and 93.2%
MDA-MB-231, 10 nM | 86.9% and 92.8%
MDA-MB-231, 1000 nM | 74% and 92.3%
MDA-MB-231, 10000 nM | 69.8% and 71.6%
MDA-MB-436 [5], 10 nM | 85% and 75%
MDA-MB-436 [5], 1000 nM | 69.6% and 68.2%
MDA-MB-436 [5], 10000 nM | 70.5% and 71.4%
MDA-MB-453 [6], 3 nM | 107% and 118%
MDA-MB-468, 10 nM | 109% and 102%
MDA-MB-468, 1000 nM | 28.7% and 29.4%
MDA-MB-468, 10000 nM | 27% and 29.1%
MFM-223, 10 nM | 80.2% and 104%
MFM-223, 1000 nM | 84.7% and 102%
MFM-223, 10000 nM | 90.1% and 98.6%
SK-BR-3, 10 nM | 84.5% and 98.1%
SK-BR-3, 1000 nM | 90.2% and 88.1%
SK-BR-3, 10000 nM | 69.1% and 74.5%

Cc1ccc(-c2cc(C(F)(F)F)nn2-c2ccc(S(N)(=O)=O)cc2)cc1 [Celecoxib]
Details | drug sensitivity score | normalised viability [%]
HCC1937 [9] | 2.89 | –
HDQ-P1 [1] | – | 72.2
Hs578T [8] | 0 | –
MDA-MB-436 [10] | 3.91 | –
MDA-MB-453 [2] | – | 92.5

normalised viability [%]
Details | 3 nM | 10 nM | 30 nM | 100 nM | 1000 nM | 10000 nM
BT-474 | – | 111 | – | – | 97.3 | 105
BT-549 | – | 86.6 | – | – | 106 | 78.4
CAL-51 | 99 | – | 98.3 | 94.4 | – | –
CAL-85-1 | 91.6 | – | 75 | 76.7 | – | –
CAL-120 | – | 94.5 | – | – | 79.7 | 81.9
CAL-148 | 86.8 | – | 97 | 91.2 | – | –
DU-4475 | 83.8 | – | 93.1 | 106 | – | –
HCC1143 | – | 90.3 | – | – | 95.5 | 86
HCC1599 | – | 99 | – | – | 95.7 | 65.6
HCC1937 [7] | – | 85.3 | – | – | 80.3 | 79.4
HDQ-P1 [4] | 104 | – | 93.5 | 85 | – | –
Hs578T [3] | – | 113 | – | – | 108 | 92.6
MDA-MB-231 | – | 96.2 | – | – | 86.7 | 99.6
MDA-MB-436 [5] | – | 99.3 | – | – | 77.8 | 80.1
MDA-MB-453 [6] | 111 | – | 97.5 | 103 | – | –
MDA-MB-468 | – | 96.6 | – | – | 107 | 95
MFM-223 | – | 95.9 | – | – | 92.1 | 86.3
SK-BR-3 | – | 87.6 | – | – | 90.2 | 79.7

Source: the supplement of paper PMC4862054
